What was measured:
[1] = Ex vivo biodistribution (organ distribution) in mice; settings: i.v. 300 to 400 kBq, female CD1 mice
Description: (§1) Female CD1 mice (10 to 12 weeks old, 20 to 25 g) received an injection of 300 to 400 kBq of [^18F]1 or [^18F]2 with specific activities of >450 GBq/μmol in 200 μL of 0.9% NaCl/10% EtOH into the tail vein. The animals were anesthetized (CO2/O2 mixture) for blood and urine sampling and euthanized by luxation of the cervical spine at 5, 30, and 60 min after injection (p.i.) (n = 2 to 5 per time). The organs of interest were removed and weighed, and the activities were measured by γ counting using a calibrated γ counter Wallac Wizard 1470 (Perkin Elmer Inc., Waltham, MA, USA). The percentage of injected dose per gram of wet tissue (% ID/g wet weight) was calculated.

CB2R = CB2R (Mus musculus, UniProt P47936); design: species or system female CD1 mice; settings: female, CD1, mouse, in vivo
Description: as §1
(3 mg/kg i.p. in 0.9% saline, 10 min before the injection of the radiotracer) at 60 min p.i. (n = 2 to 5). The unpaired two-tailed t test was used to compare the results between the groups. We considered differences to be significant at a p value <0.05.

[2] = Ex vivo metabolite studies (radio-HPLC of plasma and brain extracts); type: in vivo, CD1 mice; settings: mice
Description: [^18F]1 and [^18F]2 (100 to 150 MBq, 250 to 450 GBq/μmol in 150 μL NaCl 0.9%/10% EtOH) were injected via the tail vein in CD1 male mice (10 to 12 weeks old, 20 to 25 g). Blood and urine samples were obtained at 30 and 60 min p.i. (n = 3 per time point). Twofold extractions of plasma and brain samples (n = 3) were performed using ice-cold MeCN according to the standard protocol established in our group (see [47, 48]). Briefly, plasma samples were obtained by centrifugation of the blood at 4,000×g at 4°C for 10 min, and brain samples were homogenized in ice-cold 50 mM Tris–HCl (pH = 7.4). The samples were vortexed, incubated on ice, and centrifuged at 10,000×g for 3 min. Supernatants were collected, and the precipitates were re-dissolved in ice-cold MeCN for the second extraction. The supernatants from the two extractions were combined, concentrated under a gentle argon stream at 65°C, and analyzed by radio-TLC and gradient analytical HPLC (see ‘Radiochemistry’ section). Aliquots from each extraction supernatant and the precipitates were also taken and quantified by γ counting (Wallac Wizard 1470, Perkin Elmer Inc., Waltham, MA, USA) along with the respective aliquots of intact plasma samples and brain homogenates. A moderate recovery of radioactivity was obtained from plasma samples and brain homogenates (60% to 70%). Radiometabolites of [^18F]17 in the plasma, spleen, and brain were assessed at 30 and 60 min p.i.

[3] = In vitro radiochemical stability; type: physicochemical; settings: all selected media, 40°C, up to 90 min
Description: In vitro radiochemical stabilities of [^18F]1 and [^18F]2 were investigated in 0.9% NaCl solution, Dulbecco’s phosphate buffer, 0.01 M Tris–HCl (pH 7.4 at 21°C), and EtOH at 40°C for 90 min. Samples were taken at 15, 30, 60, and 90 min after incubation and analyzed by radio-TLC and radio-HPLC.

Sequence of CB2R (P47936 whole entry): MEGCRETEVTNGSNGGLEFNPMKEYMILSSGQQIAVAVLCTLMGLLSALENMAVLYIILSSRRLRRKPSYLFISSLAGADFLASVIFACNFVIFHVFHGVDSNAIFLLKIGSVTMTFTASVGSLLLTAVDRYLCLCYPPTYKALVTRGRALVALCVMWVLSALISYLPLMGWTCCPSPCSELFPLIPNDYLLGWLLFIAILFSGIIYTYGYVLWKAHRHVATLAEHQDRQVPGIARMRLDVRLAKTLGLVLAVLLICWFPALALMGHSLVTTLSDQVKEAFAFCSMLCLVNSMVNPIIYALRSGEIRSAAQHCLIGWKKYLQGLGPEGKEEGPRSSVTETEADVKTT

CCn1c2ccccc2c2cc(NC(=O)CCc3nc(-c4ccc([18F])cc4Br)no3)ccc21 [[^18F]2]
Radioactivity uptake, Adrenals, Control 5 min [1]: 7.67 ± 2.18 % ID/g
Radioactivity uptake, Adrenals, Control 30 min [1]: 5.38 ± 0.61 % ID/g
Radioactivity uptake, Adrenals, Control 60 min [1]: 2.44 ± 0.72 % ID/g
Radioactivity uptake, Bladder, Control 5 min [1]: 1.01 ± 0.29 % ID/g
Radioactivity uptake, Bladder, Control 30 min [1]: 2.02 ± 0.39 % ID/g
Radioactivity uptake, Bladder, Control 60 min [1]: 1.45 ± 0.57 % ID/g
Radioactivity uptake, Blood, Control 5 min [1]: 2.29 ± 0.48 % ID/g
Radioactivity uptake, Blood, Control 30 min [1]: 3.42 ± 0.39 % ID/g
Radioactivity uptake, Blood, Control 60 min [1]: 2.50 ± 0.42 % ID/g
Radioactivity uptake, Brain, Control 5 min [1]: 0.62 ± 0.22 % ID/g
Radioactivity uptake, Brain, Control 30 min [1]: 0.86 ± 0.34 % ID/g
Radioactivity uptake, Brain, Control 60 min [1]: 0.26 ± 0.07 % ID/g
Radioactivity uptake, Femur, Control 5 min [1]: 1.63 ± 0.93 % ID/g
Radioactivity uptake, Femur, Control 30 min [1]: 1.10 ± 0.03 % ID/g
Radioactivity uptake, Femur, Control 60 min [1]: 0.58 ± 0.11 % ID/g
Radioactivity uptake, Gonads, Control 5 min [1]: 1.14 ± 0.32 % ID/g
Radioactivity uptake, Gonads, Control 30 min [1]: 2.08 ± 0.03 % ID/g
Radioactivity uptake, Gonads, Control 60 min [1]: 2.29 ± 0.57 % ID/g
Radioactivity uptake, Heart, Control 5 min [1]: 3.42 ± 0.57 % ID/g
Radioactivity uptake, Heart, Control 30 min [1]: 2.32 ± 0.24 % ID/g
Radioactivity uptake, Heart, Control 60 min [1]: 1.45 ± 0.20 % ID/g
Radioactivity uptake, Kidney, Control 5 min [1]: 5.86 ± 0.96 % ID/g
Radioactivity uptake, Kidney, Control 30 min [1]: 5.90 ± 0.15 % ID/g
Radioactivity uptake, Kidney, Control 60 min [1]: 3.96 ± 1.25 % ID/g
Radioactivity uptake, Large intestine, Control 5 min [1]: 0.46 ± 0.06 % ID/g
Radioactivity uptake, Large intestine, Control 30 min [1]: 1.25 ± 0.30 % ID/g
Radioactivity uptake, Large intestine, Control 60 min [1]: 1.86 ± 0.36 % ID/g
Radioactivity uptake, Liver, Control 5 min [1]: 31.31 ± 9.91 % ID/g
Radioactivity uptake, Liver, Control 30 min [1]: 8.84 ± 0.83 % ID/g
Radioactivity uptake, Liver, Control 60 min [1]: 6.27 ± 0.68 % ID/g
Radioactivity uptake, Lung, Control 5 min [1]: 4.62 ± 0.21 % ID/g
Radioactivity uptake, Lung, Control 30 min [1]: 3.36 ± 0.02 % ID/g
Radioactivity uptake, Lung, Control 60 min [1]: 2.52 ± 0.60 % ID/g
Radioactivity uptake, Muscle, Control 5 min [1]: 1.00 ± 0.30 % ID/g
Radioactivity uptake, Muscle, Control 30 min [1]: 0.92 ± 0.15 % ID/g
Radioactivity uptake, Muscle, Control 60 min [1]: 0.70 ± 0.27 % ID/g
Radioactivity uptake, Pancreas, Control 5 min [1]: 2.04 ± 0.59 % ID/g
Radioactivity uptake, Pancreas, Control 30 min [1]: 1.71 ± 0.15 % ID/g
Radioactivity uptake, Pancreas, Control 60 min [1]: 0.82 ± 0.21 % ID/g
Radioactivity uptake, Plasma, Control 5 min [1]: 3.87 ± 0.90 % ID/g
Radioactivity uptake, Plasma, Control 30 min [1]: 6.82 ± 1.19 % ID/g
Radioactivity uptake, Plasma, Control 60 min [1]: 5.22 ± 0.73 % ID/g
Radioactivity uptake, Small intestine, Control 5 min [1]: 3.86 ± 2.64 % ID/g
Radioactivity uptake, Small intestine, Control 30 min [1]: 20.78 ± 3.28 % ID/g
Radioactivity uptake, Small intestine, Control 60 min [1]: 27.31 ± 2.44 % ID/g
Radioactivity uptake, Spleen, Control 5 min [1]: 10.42 ± 7.67 % ID/g
Radioactivity uptake, Spleen, Control 30 min [1]: 1.34 ± 0.10 % ID/g
Radioactivity uptake, Spleen, Control 60 min [1]: 0.68 ± 0.11 % ID/g
Radioactivity uptake, Stomach, Control 5 min [1]: 1.57 ± 1.18 % ID/g
Radioactivity uptake, Stomach, Control 30 min [1]: 2.09 ± 0.81 % ID/g
Radioactivity uptake, Stomach, Control 60 min [1]: 2.21 ± 0.43 % ID/g
Radioactivity uptake, Thymus, Control 5 min [1]: 2.30 ± 1.06 % ID/g
Radioactivity uptake, Thymus, Control 30 min [1]: 1.96 ± 0.22 % ID/g
Radioactivity uptake, Thymus, Control 60 min [1]: 1.04 ± 0.08 % ID/g
Radioactivity uptake, Adrenals, Blocking 60 min (CB2R; 3 mg/kg, 1 h): 3.34 ± 0.15 % ID/g
Radioactivity uptake, Bladder, Blocking 60 min (CB2R; 3 mg/kg, 1 h): 1.77 ± 0.16 % ID/g
Radioactivity uptake, Blood, Blocking 60 min (CB2R; 3 mg/kg, 1 h): 3.40 ± 0.21 % ID/g
Radioactivity uptake, Brain, Blocking 60 min (CB2R; 3 mg/kg, 1 h): 0.28 ± 0.03 % ID/g
Radioactivity uptake, Femur, Blocking 60 min (CB2R; 3 mg/kg, 1 h): 0.61 ± 0.09 % ID/g
Radioactivity uptake, Gonads, Blocking 60 min (CB2R; 3 mg/kg, 1 h): 1.97 ± 0.39 % ID/g
Radioactivity uptake, Heart, Blocking 60 min (CB2R; 3 mg/kg, 1 h): 1.53 ± 0.13 % ID/g
Radioactivity uptake, Kidney, Blocking 60 min (CB2R; 3 mg/kg, 1 h): 4.91 ± 1.51 % ID/g
Radioactivity uptake, Large intestine, Blocking 60 min (CB2R; 3 mg/kg, 1 h): 1.78 ± 0.23 % ID/g
Radioactivity uptake, Liver, Blocking 60 min (CB2R; 3 mg/kg, 1 h): 10.51 ± 1.10 % ID/g
Radioactivity uptake, Lung, Blocking 60 min (CB2R; 3 mg/kg, 1 h): 2.31 ± 0.19 % ID/g
Radioactivity uptake, Muscle, Blocking 60 min (CB2R; 3 mg/kg, 1 h): 0.70 ± 0.06 % ID/g
Radioactivity uptake, Pancreas, Blocking 60 min (CB2R; 3 mg/kg, 1 h): 1.02 ± 0.11 % ID/g
Radioactivity uptake, Plasma, Blocking 60 min (CB2R; 3 mg/kg, 1 h): 5.78 ± 0.07 % ID/g
Radioactivity uptake, Small intestine, Blocking 60 min (CB2R; 3 mg/kg, 1 h): 29.64 ± 5.10 % ID/g
Radioactivity uptake, Spleen, Blocking 60 min (CB2R; 3 mg/kg, 1 h): 0.74 ± 0.10 % ID/g
Radioactivity uptake, Stomach, Blocking 60 min (CB2R; 3 mg/kg, 1 h): 3.24 ± 2.10 % ID/g
Radioactivity uptake, Thymus, Blocking 60 min (CB2R; 3 mg/kg, 1 h): 1.77 ± 0.14 % ID/g
% control, Adrenals (CB2R; 60 min): 137 % control
% control, Bladder (CB2R; 60 min): 122 % control
% control, Blood (CB2R; 60 min): 136 % control
% control, Brain (CB2R; 60 min): 108 % control
% control, Femur (CB2R; 60 min): 106 % control
% control, Gonads (CB2R; 60 min): 86 % control
% control, Heart (CB2R; 60 min): 106 % control
% control, Kidney (CB2R; 60 min): 124 % control
% control, L. intestine (CB2R; 60 min): 96 % control
% control, Liver (CB2R; 60 min): 168 % control
% control, Lung (CB2R; 60 min): 92 % control
% control, Muscle (CB2R; 60 min): 99 % control
% control, Pancreas (CB2R; 60 min): 125 % control
% control, Plasma (CB2R; 60 min): 111 % control
% control, S. intestine (CB2R; 60 min): 109 % control
% control, Spleen (CB2R; 60 min): 110 % control
% control, Stomach (CB2R; 60 min): 146 % control
% control, Thymus (CB2R; 60 min): 171 % control
Percentage of total activity in brain samples, 30 min p.i. ([2]; brain homogenate extract, 30 min p.i. of [18F]1 or [18F]2, radio-HPLC): 88%
Percentage of total activity in brain samples, 60 min p.i. ([2]; brain homogenate extract, 60 min p.i. of [18F]1 or [18F]2, radio-HPLC): 43%
Relative percentage of intact tracer and radiometabolites, Plasma 30 min p.i. ([2]; plasma, 30 min p.i. of [18F]1 or [18F]2, radio-HPLC): 2%
Relative percentage of intact tracer and radiometabolites, Plasma 60 min p.i. ([2]; plasma, 60 min p.i. of [18F]1 or [18F]2, radio-HPLC): 2%
intact tracer [3]: ≥ 98%
